From PubChem BioAssay AID1996
≈ marks a conversion by molar mass, not a printed value.

Details: buffer; pH 7.4; 200.0 µM

SMILES | solubility kinetic [µg/mL]
Cc1ccnc(NS(=O)(=O)c2ccc(NS(C)(=O)=O)cc2)n1 | 47.8 (≈ 140 µM)
Cc1ccoc1C(=O)Nc1cccc2ccccc12 | 33.9 (≈ 135 µM)
CCc1c(C(=O)NC(C)C2CCCO2)csc1C (stereo not drawn) | 35.9 (≈ 134 µM)
O=C(Cc1cccs1)Nc1ccccc1 | > 32.6
CC(=O)c1c(C)[nH]c(C(=O)COC(=O)c2ccc(C)s2)c1C | 3.5 (≈ 11 µM)
O=C(NCC(c1cccs1)N1CCOCC1)c1cnc(Cl)c(Cl)c1 (stereo not drawn) | > 57.9
O=C(/C=C/c1cccc(Br)c1)N1CCN(c2ccccn2)CC1 | 4.6 (≈ 12.4 µM)
Cc1noc(C(=O)NC2CCCCC2)c1Cl | 35.6 (≈ 147 µM)
CCOc1ccc(CN(C)C(C)C(=O)NCc2ccccc2)cc1 (stereo not drawn) | > 49
CC(C)(C)OC(=O)NCCC(=O)N/N=C/c1ccc2nccnc2c1 | > 51.5
CC1(C)Cc2ccccc2C(C(=O)c2ccccc2)=N1 | 31 (≈ 118 µM)
O=C(O/N=C1/CCCc2occc21)c1ccc(Cl)cc1Cl | < 0.7
COc1ccc2c(c1OC)C(=O)N(c1cccc(/C=C/C(=O)O)c1)C2 | > 50.9
Cc1ccc(S(=O)(=O)N2CCOCC2)cc1C(=O)NC(C)CCc1ccccc1 (stereo not drawn) | 25.1 (≈ 60.3 µM)
O=C(CNC(=O)C1COc2ccccc2O1)Nc1ccc(F)c(F)c1 (stereo not drawn) | 18.3 (≈ 52.5 µM)
O=C(O)CN(CCc1ccccc1)S(=O)(=O)c1ccccc1 | > 47.9
COc1ccccc1CC(=O)N1CCN(S(=O)(=O)c2ccccc2F)CC1 | > 58.9
COc1ccc2oc(C(=O)N3CCN(S(=O)(=O)c4ccc(F)cc4)CC3)c(C)c2c1 | 7.5 (≈ 17.3 µM)
CCCc1cc(=O)[nH]c(SCC(=O)Nc2ccc(S(=O)(=O)N3CCCC3)cc2)n1 | 29 (≈ 66.4 µM)
CC(=O)Nc1ccc(-c2nc3ccccc3o2)cc1 | 1.3 (≈ 5.15 µM)
COc1ccccc1C(=O)NC(=O)COC(=O)C1CC1C (stereo not drawn) | > 43.7
COc1ccccc1Oc1coc2cc(OCC(N)=O)ccc2c1=O | 47.8 (≈ 140 µM)
COc1cccc(NC(=S)Nc2cc(C)cc(C)n2)c1 | 0.3 (≈ 1.04 µM)
O=C1OC(Nc2ccc3ncccc3c2)c2ccccc21 (stereo not drawn) | 4.3 (≈ 15.6 µM)

SMILES | solubility kinetic [µg/mL]
Cc1cc(C)nc(NC(=O)c2ccc(Cl)cc2Cl)n1 | 42 (≈ 142 µM)
CCCNC(=O)c1cnc(-c2ccccc2)nc1-c1ccccc1 | 1 (≈ 3.15 µM)
COc1ccc(-c2csc(-c3ccc(O)cc3)n2)cc1 | < 0.6
CS(=O)(=O)N(CC(=O)N1CCOCC1)c1ccccc1 | > 44.8
COc1ccc2cc(Br)ccc2c1CC(=O)NCCCN1CCOCC1 | > 63.2
Cc1nc2ccccc2c(=O)n1-c1cccc(C(F)(F)F)c1 | 43.6 (≈ 143 µM)
COc1ccc(CCNC(=O)c2ccc([N+](=O)[O-])cc2)cc1 | 5.3 (≈ 17.6 µM)
Cc1ccc(CC(C(=O)O)C(C)C(=O)Nc2ccc(F)cc2)cc1 (stereo not drawn) | > 49.4
COc1ccc(N2CCN(c3ccc(Cl)nn3)CC2)cc1 | > 45.7
CC1(C)Cc2nc3sc(C(N)=O)c(N)c3cc2CO1 | > 41.6
O=C(COC(=O)c1ccc(F)cc1F)c1ccc[nH]1 | > 39.8
O=C(NC1CCC(O)CC1)c1ccccc1OCc1ccc(F)cc1 (stereo not drawn) | 46.4 (≈ 135 µM)
Cc1ccnc(NC(=O)c2ccc(Cl)cc2Cl)n1 | 31.7 (≈ 112 µM)
CC(=O)N1CCC(O)(c2ccc3c(c2)OCO3)CC1 | 37.1 (≈ 141 µM)
CC(=O)c1ccc(N2CCN(C(=O)c3cccs3)CC2)c(F)c1 | > 49.9
CCCCN1CC2=C(C1=O)C(c1ccc(O)cc1)NC(=O)N2C (stereo not drawn) | > 47.3
CC(C)(CO)NCc1c(OCc2ccc(Cl)cc2)ccc2ccccc12.Cl | 57.1
CCc1nn(CC(=O)Nc2cc(C)ccc2C)c(=N)s1.Cl | > 49
O=C(c1ccncc1)N1CCN(S(=O)(=O)c2ccc(OC(F)(F)F)cc2)CC1 | 36.6 (≈ 88.1 µM)
CN(Cc1ccc2ccccc2c1)C(=O)c1ccc(C(F)(F)F)cc1 | 4.6 (≈ 13.4 µM)
O=C1NCC(COc2ccc(Cl)cc2)O1 (stereo not drawn) | > 34.1
CCOC(=O)C1CCN(C(=O)COC(=O)/C=C/c2ccccc2)CC1 | > 51.8
Cc1ccc(CN2CC(C(=O)N(C)CC(=O)Nc3cccc(F)c3)CC2=O)cc1 (stereo not drawn) | 46.2 (≈ 116 µM)
CN(C)S(=O)(=O)c1cccc(NC(=O)NCCCl)c1 | > 45.9

SMILES | solubility kinetic [µg/mL]
CCCCC(CC)CNC(=O)Cn1c(=O)[nH]c2ccsc2c1=O (stereo not drawn) | 33.5 (≈ 99.3 µM)
Cc1cccc2[nH]c(CN(C)Cc3nc(CC4CC4)no3)nc12 | 45.9 (≈ 147 µM)
COc1cccc(C(=O)Nc2ccc(NC(=O)Cc3ccccc3)cc2)c1 | < 0.4
Cc1ccc(Cl)cc1N1C(=O)CC(C)(C)CC1=O | 15.7 (≈ 59.1 µM)
O=C(c1ccc(F)c(F)c1)N1CCCc2ccccc21 | 37.9 (≈ 139 µM)
OCCN1CCN(c2nc(-c3ccccc3O)nc3ccccc23)CC1 | 37.8 (≈ 108 µM)
CC(Sc1nncn1C)C(=O)Nc1ccc(S(N)(=O)=O)cc1 (stereo not drawn) | > 51.2
COC(=O)[C@H](CC(C)C)NC(=O)N1CCCCC1C (stereo partly drawn) | > 40.6
Cc1cccc(-c2noc(-c3c(C)noc3C)n2)c1 | < 0.2
O=C(COc1ccc(Cl)cc1Br)NC1CC1 | > 45.7
O=C(NCC(=O)N1CC=C(c2ccccc2)CC1)c1ccc(F)cc1 | 9 (≈ 26.6 µM)
CC1Oc2ccccc2N(CC(=O)N2CCCCC2)C1=O (stereo not drawn) | > 43.3
Cc1ccccc1C(=O)Nc1nc2c(C)csc2c(=O)s1 | < 0.3
CCCN(Cc1cc2cc(C)ccc2[nH]c1=O)C(=O)c1ccccn1 | > 50.3
Cc1cccc[n+]1CC(=O)Nc1ccccc1.[Cl-] | 26.6
CC1CC(C)CN(C(=O)CSc2n[nH]c(N)n2)C1 (stereo not drawn) | > 40.4
CC(=O)c1ccccc1NC(=O)COC(=O)/C=C/c1ccc(C)o1 | < 0.7
Cc1ccc2[nH]c(CNC(=O)C3CCCCC3)cc2c1 | 19.6 (≈ 72.5 µM)
CCOC(=O)c1ccc(NC(=S)N2CCN(CCO)CC2)cc1 | > 50.6
CC(=O)N1C(C)(C)CC(=NOC(=O)c2ccccc2)CC1(C)C | 47.1 (≈ 149 µM)
CCC1Oc2ccccc2N(CC(=O)NC2CCCCC2)C1=O (stereo not drawn) | 43.9 (≈ 139 µM)
CC(C)N(Cc1ccccc1)C(=O)COC(=O)c1ccc(S(=O)(=O)N2CCOCC2)cc1 | 3.1 (≈ 6.73 µM)
N#Cc1cccc(NC(=O)Cc2ccsc2)c1 | 33.4 (≈ 138 µM)
Nc1cc(C(=O)OCC(=O)Nc2cccc(S(=O)(=O)N3CCOCC3)c2)ccc1Cl | 24.4 (≈ 53.8 µM)

SMILES | solubility kinetic [µg/mL]
Cc1cc2nc(-c3ccc(=O)[nH]c3)n(Cc3ccccc3)c2cc1C | 43.4 (≈ 132 µM)
CN1CCN(C(=S)NC(=O)c2ccccc2Cl)CC1 | > 44.7
CN(C)C(=O)Oc1cccc([N+](C)(C)C)c1.[Br-] | > 45.5
Cc1cc(=O)n(Cc2ccccc2)c2ccccc12 | > 37.4
COc1cc(OC)cc(C(=O)O/N=C(\N)c2ccccn2)c1 | 40.6 (≈ 135 µM)
O=C(Nc1cc(Cl)ccc1N1CCOCC1)C1CC1 | > 42.1
CCn1c2ccccc2c2nc3cc(S(=O)(=O)N4CCOCC4)ccc3nc21 | 2.4 (≈ 6.05 µM)
C/C=C/C(=O)N(CC)c1ccccc1C | 17.7 (≈ 87.1 µM)
O=C(C1CCN(S(=O)(=O)c2cccs2)CC1)N1CCCCC1 | > 51.4
COc1ccc(COc2cccnc2N)cc1 | 20.1 (≈ 87.3 µM)
O=C(O)CC(NC(=O)Cc1ccccc1)c1ccccc1 (stereo not drawn) | 27.4 (≈ 96.7 µM)
O=C(CC1(CC(=O)N2CCOCC2)CCCC1)Nc1ccccc1 | > 49.6
CN1C(=O)/C(=C/c2ccc(O)c([N+](=O)[O-])c2)N(C)C1=S | 4.5 (≈ 15.3 µM)
Cc1ccc(S(=O)(=O)NC2CC(C)(C)NC(C)(C)C2)cc1C | > 48.7
COc1ccc(N2CCN(CCc3ccncc3)CC2)cc1 | > 44.6
Cc1ccc(C2(C)NC(=O)N(CC(=O)N(c3ccccc3)C3CCS(=O)(=O)C3)C2=O)cc1 (stereo not drawn) | > 68.3
Cc1ccc(C)c(NS(=O)(=O)c2ccc3[nH]c(=O)[nH]c3c2)c1 | 4.8 (≈ 15.1 µM)
COc1ccc(C2CC(=O)C=C(NCc3ccc4c(c3)OCO4)C2)cc1 (stereo not drawn) | 8.5 (≈ 24.2 µM)
O=C(NC(=S)NCC1CCCO1)c1ccco1 (stereo not drawn) | 37.6 (≈ 148 µM)
CCCCNC(=O)c1cc2cccc([N+](=O)[O-])c2[nH]1 | 27.3 (≈ 104 µM)
O=C(NCCc1ccc(F)cc1)c1cc2ccccc2oc1=O | < 0.7
COC(=O)c1ccc(Nc2ccc3nonc3c2[N+](=O)[O-])cc1 | < 0.2
COc1ccc(CNC(=O)C(=O)NCCCn2ccnc2)cc1 | > 47.5
CCOc1ccc(C2C([N+](=O)[O-])=C(C)N(C)C(=O)N2C)cc1OC (stereo not drawn) | > 50.3

SMILES | solubility kinetic [µg/mL]
CC(C)(C)c1ccc(-c2noc(CNC(=O)c3ccco3)n2)cc1 | 3.8 (≈ 11.7 µM)
C=CCNC(=O)C1CCN(S(=O)(=O)c2cccs2)CC1 | > 47.2
COc1cc2[nH]c(Cl)c([N+](=O)[O-])c2cc1OC | > 38.5
CN(C)/C=C(\C#N)S(=O)(=O)c1ccccc1 | > 35.4
COCCNC(=O)COc1cccc2c1OC(C)(C)C2 | > 41.9
O=c1cc(C(F)(F)F)nc(SC/C=C/c2ccccc2)[nH]1 | > 46.8
CC(C)CNS(=O)(=O)c1ccc(CCC(=O)N2CCCC2)cc1 | > 50.8
COc1ccc(CNC(=S)Nc2cccc(Cl)c2)cc1 | 3 (≈ 9.78 µM)
O=C(Nc1ccc2ccccc2n1)Nc1ccccc1F | < 0.2
O=C(Cc1ccccc1)Nc1cc2c(cc1Cl)OCCCO2 | 5.5 (≈ 17.3 µM)
NC(=O)c1c(NC(=O)COC(=O)c2ccc(O)c(Cl)c2)sc2c1CCCC2 | 8.5 (≈ 20.8 µM)
CCN(c1ccccc1)S(=O)(=O)c1ccc(C(=O)Nc2ccccc2OC)cc1 | 3.7 (≈ 9.01 µM)
CCOC(=O)c1ccc(NC2=CC(=O)CC(c3ccco3)C2)cc1 (stereo not drawn) | 9.6 (≈ 29.5 µM)
Cc1ccc(S(=O)(=O)N2CCCC(C)C2)cc1 (stereo not drawn) | 21.3 (≈ 84.1 µM)
O=C(CCCSc1nc2ccccc2[nH]1)NC1CCCCC1 | > 47.6
O=C(C1Cc2ccccc2CN1S(=O)(=O)c1ccccc1[N+](=O)[O-])N1CCOCC1 (stereo not drawn) | 63.7 (≈ 148 µM)
CC(C)N(C(=O)Cn1c(=O)oc2ccccc21)c1ccccc1 | 0.7 (≈ 2.26 µM)
COc1ccc(S(=O)(=O)N2CCN(C)CC2)c(C)c1 | > 42.7
CN(C)C(C)(C)C#CC(O)(c1ccccc1)c1ccccc1 | > 44
N#C/C(=C\C=C\c1ccccc1)C(=O)NCc1ccco1 | 6.3 (≈ 22.6 µM)
COc1ccc(S(=O)(=O)N2CCCC2)cc1Br | 33.9 (≈ 106 µM)
O=C(/C=C/c1cccnc1)c1ccc(O)cc1 | 28.5 (≈ 127 µM)
